Like-named read-outs stand apart in the source and are kept apart here. Values belong to the compound of their own block, whether it stands above or below them.
Columns and labels:
[1] = test system: HepG2 cells; test: Cholesterol biosynthesis in cultured human liver cell line ([1,2-14C]acetate incorporation); format: cell-based; conditions: compared with AY9944 (comparative drug)
Experimental: Cultured human liver HepG2 cell line was grown on RPMI (Rosewell park Memorial Institute) 1640 culture medium containing 10% PBS until 60% of monolayer are formed in a 60 mm culture dish. After replacing the medium with 3 ml of a fresh culture medium containing 10% (v/v) LPDS (Fetal calf lipoprotein-deficient serum), the cells were further grown for 48 hours until 90% of cultivation degree appear The culture medium was removed and the cell was then washed with PBS. 2 ml of culture medium containing compound no. 2 (final concentration 100 μM) and AY-9944 (final concentration 1 μM) were added thereto. Then, the medium was cultivated at 37° C. for 1 hour under the condition of 95% air/5% carbonic acid gas. AY-9944 which is an inhibitor for sterol 7-reductase was used as a control drug for assuring the present experimental procedure on the inhibition of cholesterol biosynthesis. Thereafter, 3 μCi of [1,2-^14 C]acetate (72 mCi/mmol) were added thereto. The cultivation was continued for 2 hours so that the isotope is introduced into the cell and used as a precursor for sterol to be synthesized. Then, the culture medium was completely removed and washed with PBS twice and the cells were collected by scratching. 10 μg of cholesterol, 10 μg of lanosterol and [^3 H]cholesterol (30,000 dpm) were added thereto, and saponification reaction was carried out at 70° C. for an hour by adding 7.5% of methanolic KOH solution. Unsaponified sterol was removed by extracting them three times with 3 ml of petroleum ether and dried with nitrogen purging. The dried samples were redissolved in 200 μl of chloroform. An aliquot of the samples was loaded onto Silicagel 60F thin layer plate and then separated using ethyl acetate/hexane 25/75 (v/v) as the developing solvent. The thin layer film was developed by exposure to Amersham Hyperfilm at -70° C. for 7 days. Cholesterol band were confirmed by comparing the band appeared in the film and that appeared in the iodine-stained thin layer. After scratching the cholesterol band, it was quantified by a liquid scintillation counter.

[2] = Acute oral toxicity in SD rats; format: in vivo; conditions: rat, in vivo, po, rats
Experimental: (§1) Meanwhile, the toxicity of the compounds of the present invention was investigated as follows: i.e., the compounds were suspended into propylene glycol and then orally administered into each of 5 male and female SD rats at the age of 5-weeks that were fasted for 12 hours. Under the usual breeding conditions, general symptoms, weight change and lethal case of the above rats were monitored for two weeks. At the dose over 2,000 mg/kg of the compound nos. 2, 3, 9 and 68, general symptoms and the body weight change of the animals were normal and the lethal case was not observed.

[3] = test system: SD rats; test: Acute oral toxicity in SD rats; format: in vivo; conditions: for general symptoms and the body weight change: oral dose over 2,000 mg/kg, monitored for two weeks; for lethal case: rat, in vivo
Experimental: as §1

[4] = test system: Syrian Golden Hamster; test: In vivo effect on plasma lipids in Syrian Golden Hamster; conditions: for HDL cholesterol, change versus normal diet control / LDL cholesterol, change versus normal diet control / Total cholesterol, change versus normal diet control / Triglyceride, change versus normal diet control / HDL cholesterol / LDL cholesterol / Total cholesterol / Triglyceride: 14 days; for total cholesterol, LDL-cholesterol, and triglyceride levels: compared with lovastatin; for HDL cholesterol / LDL cholesterol / Total cholesterol / Triglyceride: normal diet, plasma
Experimental: In order to investigate the effect of the compound of formula (I) of the invention, the compound was orally administered into male Syrian Golden Hamsters having weights of 90~110 g for two weeks and blood was then taken from each animal. Plasma lipids, i.e., total cholesterol, LDL-cholesterol,HDL-cholesterol and triglycerides were analyzed using an automatic analyzer (Automatic analyzer model Hitachi 7150).
Male Syrian Golden Hamsters weighing 90~110 g distributed from Samyuk Animal Laboratory, Seoul, Korea were bred under the following conditions: they were maintained under reverse light cycle (light cycle: from 6 P.M to 6 A.M; dark cycle: from 6 A.M. to 6 P.M.). The food and water were supplied at 10 A.M. The commercially available standard rodent chows were used. The hamsters were divided into 6 or 7 animals per group. The animals were fasted for 12 hours before administrating the drug. Then, 5,6-dihydrodibenzo[a,g]quinolizinium salts (compound no. 2) dissolved in a 0.25% methyl cellulose solution was administered orally for 14 days at the indicated time per a day. After fasting animals for 24 hours from the last administration, blood was extracted using a cardiac puncture and plasma was then isolated. Plasma lipids, i.e., total cholesterol, LDL-cholesterol, HDL-cholesterol and triglyceride values were analyzed using Automatic Analyzer (Hitachi 7150).

[5] = target: T1, sterol 14-reductase (Rattus norvegicus, UniProt A0ACM8Q6X4); test: Inhibition of sterol 14-reductase in rat liver microsomes; format: biochemical
T1 construct: microsome which was used as an enzyme source of sterol 14-reductase; from tissue; host or cells: liver microsomes of male Sprague-Dawley rats fed lovastatin and cholestyramine
T1 sequence (A0ACM8Q6X4 1-418): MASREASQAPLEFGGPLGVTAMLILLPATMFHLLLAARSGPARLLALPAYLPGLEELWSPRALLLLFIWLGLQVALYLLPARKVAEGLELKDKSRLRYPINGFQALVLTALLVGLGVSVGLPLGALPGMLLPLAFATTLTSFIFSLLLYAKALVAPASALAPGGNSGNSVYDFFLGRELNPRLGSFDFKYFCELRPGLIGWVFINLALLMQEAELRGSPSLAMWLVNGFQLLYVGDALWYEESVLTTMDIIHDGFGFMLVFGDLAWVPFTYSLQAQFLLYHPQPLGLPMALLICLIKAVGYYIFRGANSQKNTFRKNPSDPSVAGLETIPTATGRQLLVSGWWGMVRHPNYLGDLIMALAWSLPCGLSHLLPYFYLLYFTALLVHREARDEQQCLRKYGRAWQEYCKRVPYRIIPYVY
Experimental: 20 Male Sprague-Dawley rats weighing from 150 to 250 g have been fed for 7 days with a diet containing 0.1% (w/w) Lovastatin and 5% (w/w) Cholestyramine. The animals were fasted for 12 hours before excising liver tissues and then sacrificed by decapitation at midnight. An aqueous solution containing 0.25M of sucrose was injected into the hepatic portal vein to remove all the blood within the liver, and then, the liver was excised. The liver was homogenated with two volumes of buffer solution A (0.1M potassium phosphate, 1 mM reduced glutathione, 0.5 mM EDTA, 20% (v/v) glycerol, pH 7.4) by repeating pestles over 10 times and then, centrifuged with 900×g for 5 minutes to give a supernatant. The supernatant was centrifuged with 12,000×g for 20 minutes. The supernatant obtained was ultracentrifuged with 105,000×g for 90 minutes to give a microsome which was used as an enzyme source of sterol 14-reductase. Assay for sterol 14-reductase was carried out as follows:
60 mmol of 4,4-dimethyl-5α-cholesta-7,14-dien-3β-ol and 5,6-dihydrodibenzo-[a,g]quinolizinium salts (compound no. 2) dissolved in DMSO were added to an assay mixture (total volume 1.0 ml) containing 2 mg of the microsomal protein, 2 mM of NADPH and 25 mg of glucose plus 20 units of glucose oxidase with preincubations under nitrogen at 37° C. for 4 min. unless otherwise specified to establish anaerobic condition. Buffer A (0.1M potassium phosphate buffer, pH 7.4, including 1 mM reduced glutathione, 0.5 mM EDTA, and 20% (v/v) glycerol) used for incubation had been equilibrated with nitrogen, and nitrogen was exchanged for air in all sealed reaction flasks prior to the start of incubations. Incubation of the complete mixture was carried out anaerobically in sealed flasks for 10 min at 37° C. unless otherwise indicated. Incubations were terminated by the addition of 1 ml of ethanolic KOH followed by heating under reflux for 10 min. Sterols were extracted four times with 4 ml of petroleum ether, and the solvent was evaporated to dryness under a nitrogen stream. The resulting residue was dissolved in 200-500 μl of n-hexane for quantification by GLC at high sensitive attenuation. The activity of sterol 14-reductase was determined with the amount of the substrate wherein the double bonds of 14-carbon were reduced (for the amount reduced by 1 mg of the microsome protein for 1 minute).

[6] = read-out: Enzyme Activity (relative in vitro activity for sterol 14-reductase, IC50 class)

Compound: CCc1c2[n+](cc3c(OCc4ccc(C(C)(C)C)cc4)c(OC)ccc13)CCc1cc(OC)c(OC)cc1-2 [Compound No. 2, 5,6-dihydro-2,3-dimethoxybenzo[a]-9-[4-(tert-butyl)benzyloxy]-13-ethyl-10-methoxybenzo[g]quinolizinium chloride]
inhibition of cholesterol biosynthesis in human HepG2 cell line [1]: markedly inhibited
LD50 at 336 h ([2]; female): > 2000 mg/kg
LD50 at 336 h ([2]; male): > 2000 mg/kg
general symptoms and the body weight change [3]: normal
lethal case [3]: not observed
HDL cholesterol, change versus normal diet control ([4]; 0.3 mg/kg/day oral): +11.4%
LDL cholesterol, change versus normal diet control ([4]; 0.3 mg/kg/day oral): -16.0%
Total cholesterol, change versus normal diet control ([4]; 0.3 mg/kg/day oral): -11.5%
Triglyceride, change versus normal diet control ([4]; 0.3 mg/kg/day oral): -14.6%
total cholesterol, LDL-cholesterol, and triglyceride levels [4]: markedly decreased
HDL cholesterol ([4]; 0.3 mg/kg/day oral): 66.6 ± 7 mg/dL
LDL cholesterol ([4]; 0.3 mg/kg/day oral): 31.0 ± 3 mg/dL
Total cholesterol ([4]; 0.3 mg/kg/day oral): 115.8 ± 8 mg/dL
Triglyceride ([4]; 0.3 mg/kg/day oral): 67.8 ± 8 mg/dL
IC50 ([5]; rat liver microsome, anaerobic, 10 min at 37° C., read-out: level of compound at which 50% of inhibition of the enzymatic activity was observed): 0.1 to 0.3 µM
IC50 [5, 6]: < 1 µM

Compound: CCc1c2[n+](cc3c(OCc4c(F)c(F)c(F)c(F)c4F)c(OC)ccc13)CCc1cc(OC)c(OC)cc1-2 [Compound No. 3, 5,6-dihydro-2,3-dimethoxybenzo[a]-13-ethyl-10-methoxy-9-(2,3,4,5,6-pentafluoro)benyloxybenzo[g]quinolizinium chloride]
inhibition of cholesterol biosynthesis in human HepG2 cell line [1]: markedly inhibited
LD50 at 336 h ([2]; female): > 2000 mg/kg
LD50 at 336 h ([2]; male): > 2000 mg/kg
general symptoms and the body weight change [3]: normal
lethal case [3]: not observed
HDL cholesterol, change versus normal diet control ([4]; 0.3 mg/kg/day oral): +5.4%
LDL cholesterol, change versus normal diet control ([4]; 0.3 mg/kg/day oral): -49.2%
Total cholesterol, change versus normal diet control ([4]; 0.3 mg/kg/day oral): -23.5%
Triglyceride, change versus normal diet control ([4]; 0.3 mg/kg/day oral): -38.0%
total cholesterol, LDL-cholesterol, and triglyceride levels [4]: markedly decreased
HDL cholesterol ([4]; 0.3 mg/kg/day oral): 63.0 ± 3.0 mg/dL
LDL cholesterol ([4]; 0.3 mg/kg/day oral): 18.8 ± 2 mg/dL
Total cholesterol ([4]; 0.3 mg/kg/day oral): 89.0 ± 7 mg/dL
Triglyceride ([4]; 0.3 mg/kg/day oral): 49.2 ± 6 mg/dL
IC50 [5, 6]: < 1 µM

IC50 [5, 6]: 10 to 100 µM
Compound: CCOc1cc2c(cc1OCC)-c1c(CC)c3ccc(OCC)c(OCc4ccc(C(F)(F)F)cc4)c3c[n+]1CC2 [Compound No. 62, 5,6-dihydro-2,3-diethoxybenzo[a]-10-ethoxy-13-ethyl-9-(4-trifluoromethyl)benzyloxybenzo[g]quinolizinium chloride]

IC50 [5, 6]: 10 to 100 µM
Compound: CCOc1cc2c(cc1OCC)-c1c(CC)c3ccc(OCC)c(OCc4cccc(C(F)(F)F)c4)c3c[n+]1CC2 [Compound No. 63, 5,6-dihydro-2,3-diethoxybenzo[a]-10-ethoxy-13-ethyl-9-(3-trifluoromethyl)benzyloxyenzo[g]quinolizinium chloride]

IC50 [5, 6]: 10 to 100 µM
Compound: CCOc1cc2c(cc1OCC)-c1c(CC)c3ccc(OCC)c(OCc4c(F)c(F)c(C(F)(F)F)c(F)c4F)c3c[n+]1CC2 [Compound No. 64, 5,6-dihydro-2,3-diethoxybenzo[a]-10-ethoxy-13-ethyl-9-(2,3,5,6-tetrafluoro-4-trifluoromethyl)-benzyloxy benzo[g]quinolizinium chloride]

IC50 [5, 6]: 10 to 100 µM
Compound: CCOc1cc2c(cc1OCC)-c1c(CC)c3ccc(OCC)c(OCc4ccc(Cl)nc4)c3c[n+]1CC2 [Compound No. 65, 5,6-dihydro-2,3-diethoxybenzo[a]-9-(6-chloropyridine-3-yl)methoxy-10-ethoxy-13-ethylbenzo[g]-quinolizinium chloride]

IC50 [5, 6]: 10 to 100 µM
Compound: CCCOc1cc2c(cc1OCCC)-c1c(CC)c3ccc(OCCC)c(OCc4ccc(C(C)(C)C)cc4)c3c[n+]1CC2 [Compound No. 66, 5,6-dihydro-2,3-dipropoxybenzo[a]-9-[4-(tert-butyl)benzyloxy]-13-ethyl-10-propoxybenzo[g]quinolizinium chloride]

IC50 [5, 6]: 10 to 100 µM
Compound: CCCOc1cc2c(cc1OCCC)-c1c(CC)c3ccc(OCCC)c(OCc4c(F)c(F)c(F)c(F)c4F)c3c[n+]1CC2 [Compound No. 67, 5,6-dihydro-2,3-dipropoxybenzo[a]-13-ethyl-9-(2,3,4,5,6-pentafluoro)benzyloxy-10-propoxybenzo[g]quinolizinium chloride]

Compound: CCc1c2[n+](cc3c(OCc4ccc(C(C)(C)C)cc4)c(OC)ccc13)CCc1cc(OC)c(OC)cc1-2 [Compound No. 69, 5,6-dihydro-2,3-dimethoxybenzo[a]-9-[4-(tert-butyl)-benzyloxy]-13-ethyl-10-methoxybenzo[g]quinolizinium bisulfate]
IC50 [5, 6]: 10 to 100 µM

Compound: CCc1c2[n+](cc3c(OCc4c(F)c(F)c(F)c(F)c4F)c(OC)ccc13)CCc1cc(OC)c(OC)cc1-2 [Compound No. 70, 5,6-dihydro-2,3-dimethoxybenzo[a]-13-ethyl-10-methoxy-9-(2,3,4,5,6-pentafluoro)benzyloxybenzo[g]quinolizinium acetate]
IC50 [5, 6]: 10 to 100 µM

IC50 [5, 6]: 10 to 100 µM
Compound: CCc1c2[n+](cc3c(OCc4ccc(Cl)nc4)c(OC)ccc13)CCc1cc(OC)c(OC)cc1-2 [Compound No. 71, 5,6-dihydro-2,3-dimethoxybenzo[a]-9-(6-chloropyridine-3-yl)methoxy-13-ethyl-10-methoxybenzo-[g]quinolizinium nitrate]

IC50 [5, 6]: > 100 µM
Compound: CCc1c2[n+](cc3c(OCc4ccc(C)c(C)c4)c(OC)ccc13)CCc1cc(OC)c(OC)cc1-2 [compound 27, 5,6-dihydro-2,3-dimethoxybenzo[a]-9-(3,4-dimethyl)benzyloxy-13-ethyl-10-methoxybenzo[g]quinolizinium chloride]

Compound: CC[C@H](C)C(=O)O[C@H]1C[C@@H](C)C=C2C=C[C@H](C)[C@H](CC[C@@H]3C[C@@H](O)CC(=O)O3)[C@H]21 [lovastatin, reference compound]
HDL cholesterol, change versus normal diet control ([4]; 6.0 mg/kg/day oral): +11.2%
LDL cholesterol, change versus normal diet control ([4]; 6.0 mg/kg/day oral): -21.4%
Total cholesterol, change versus normal diet control ([4]; 6.0 mg/kg/day oral): -17.6%
Triglyceride, change versus normal diet control ([4]; 6.0 mg/kg/day oral): -30.1%
HDL cholesterol ([4]; 6.0 mg/kg/day oral): 67.0 ± 3 mg/dL
LDL cholesterol ([4]; 6.0 mg/kg/day oral): 29.1 ± 2 mg/dL
Total cholesterol ([4]; 6.0 mg/kg/day oral): 107.8 ± 9 mg/dL
Triglyceride ([4]; 6.0 mg/kg/day oral): 55.5 ± 7 mg/dL

Reference: patent US6028197A, “Dibenzo[a,g]quinolizinium derivatives and the salts thereof” (Hanwha Corporation, priority 1998, dated 2000)
